For 20 compounds, IC50 results are on record in US12692254B2, “Benzimidazole inhibitors of PAD enzymes” (BRISTOL-MYERS SQUIBB COMPANY, priority 2018, dated 2026).

For this test, the target named is human PAD4 (hPAD4) (Homo sapiens, UniProt Q9UM07). Put plainly: RFMS human PAD4 functional assay (rapid-fire mass spectrum). Particulars: 5 nM hPAD4 enzyme, 250 μM BAEE, 50 μM Calcium; 30 min preincubation, 90 min reaction at 37° C. It is filed as biochemical. Put shortly:
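PAD4 (10 nM) preincubated 30 min with compound (top final 50 μM), then BAEE substrate added in pH 7.5 HEPES buffer with DTT, 50 μM calcium, TPEN; 90 min at 37° C. After TCA quench, citrulline derivatized with phenyl glyoxal (4 mM final, 30 min, 37° C) and quantified by RapidFire MS against internal standard.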

Each structure is given as a SMILES string.

Sequence of human PAD4 (hPAD4) (Q9UM07 whole entry): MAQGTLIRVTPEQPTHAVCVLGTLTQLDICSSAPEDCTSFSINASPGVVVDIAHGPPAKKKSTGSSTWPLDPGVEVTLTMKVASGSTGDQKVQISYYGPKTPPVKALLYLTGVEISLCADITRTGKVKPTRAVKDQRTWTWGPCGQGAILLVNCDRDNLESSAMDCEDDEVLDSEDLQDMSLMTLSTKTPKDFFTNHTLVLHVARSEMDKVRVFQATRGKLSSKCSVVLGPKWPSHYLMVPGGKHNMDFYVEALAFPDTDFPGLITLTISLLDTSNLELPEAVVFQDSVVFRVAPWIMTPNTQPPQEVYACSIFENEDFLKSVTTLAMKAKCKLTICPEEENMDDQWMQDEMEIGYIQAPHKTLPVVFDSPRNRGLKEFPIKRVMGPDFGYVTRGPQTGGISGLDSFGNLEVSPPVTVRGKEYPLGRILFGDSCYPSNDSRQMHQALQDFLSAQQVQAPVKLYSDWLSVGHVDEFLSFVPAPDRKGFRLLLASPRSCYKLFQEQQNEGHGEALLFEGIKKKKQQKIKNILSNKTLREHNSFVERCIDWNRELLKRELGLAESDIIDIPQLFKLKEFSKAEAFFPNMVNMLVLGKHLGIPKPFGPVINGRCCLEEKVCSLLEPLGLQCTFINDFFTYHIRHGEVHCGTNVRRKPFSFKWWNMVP

As to `COc1cc(C(=O)N2C[C@H]3CC[C@@H]2[C@@H]3N)cc2nc(-c3cc4cccnc4n3CC3CC3)n(CC3CN(c4ncc(Br)cn4)C3)c12` [Example 32, (1R,4R,7R)-2-(1-{[1-(5-bromopyrimidin-2-yl)azetidin-3-yl]methyl}-2-[1-(cyclopropylmethyl)-1H-pyrrolo[2,3-b]pyridin-2-yl]-7-methoxy-1H-1,3-benzodiazole-5-carbonyl)-2-azabicyclo[2.2.1]heptan-7-amine], the IC50 was determined as 0.086 µM. Take `COc1cc(C(=O)N2CC3CCC2[C@@H]3N)cc2nc(-c3cc4ccccc4n3CC3CC3)n(Cc3cnn(-c4cccc(O)n4)c3)c12` (stereo partly drawn) [Example 388, 6-[4-({5-[(7R)-7-amino-2-azabicyclo[2.2.1]heptane-2-carbonyl]-2-[1-(cyclopropylmethyl)-1H-indol-2-yl]-7-methoxy-1H-1,3-benzodiazol-1-yl}methyl)-1H-pyrazol-1-yl]pyridin-2-ol]: the IC50 was 0.043 µM. As to `COc1cc(C(=O)N2CC3CCC2[C@@H]3N)cc2nc(-c3cc4ccccc4n3CC(F)F)n(Cc3cnn(C)c3)c12` (stereo partly drawn) [Example 502, (7R)-2-{2-[1-(2,2-difluoroethyl)-1H-indol-2-yl]-7-methoxy-1-[(1-methyl-1H-pyrazol-4-yl)methyl]-1H-1,3-benzodiazole-5-carbonyl}-2-azabicyclo[2.2.1]heptan-7-amine], the 50% inhibitory concentration (IC50) is 0.146 µM.

Consider `COc1cc(C(=O)N2C[C@H]3CC[C@@H]2[C@@H]3N)cc2nc(-c3cc4cccnc4n3CC3CC3)n(CCNS(C)(=O)=O)c12` [Example 286, N-(2-{5-[(1R,4R,7R)-7-amino-2-azabicyclo[2.2.1]heptane-2-carbonyl]-2-[1-(cyclopropylmethyl)-1H-pyrrolo[2,3-b]pyridin-2-yl]-7-methoxy-1H-1,3-benzodiazol-1-yl}ethyl)methanesulfonamide], for which the 50% inhibitory concentration (IC50) was found to be 1.19 µM. The value for `COc1cc(C(=O)N2CC3CCC2[C@@H]3N)cc2nc(-c3cc4cccnc4n3CC3CC3)n(Cc3cnn(CC#N)c3)c12` (stereo partly drawn) [Example 390, 2-[4-({5-[(7R)-7-amino-2-azabicyclo[2.2.1]heptane-2-carbonyl]-2-[1-(cyclopropylmethyl)-1H-pyrrolo[2,3-b]pyridin-2-yl]-7-methoxy-1H-1,3-benzodiazol-1-yl}methyl)-1H-pyrazol-1-yl]acetonitrile] was 0.045 µM; that for `CCn1cc(Cn2c(-c3cc4cccnc4n3CC3CC3)nc3cc(C(=O)N4CC5CCC4[C@@H]5N)cc(OC)c32)cn1` (stereo partly drawn) [Example 489, (7R)-2-{2-[1-(cyclopropylmethyl)-1H-pyrrolo[2,3-b]pyridin-2-yl]-1-[(1-ethyl-1H-pyrazol-4-yl)methyl]-7-methoxy-1H-1,3-benzodiazole-5-carbonyl}-2-azabicyclo[2.2.1]heptan-7-amine] was 0.055 µM. `COc1ccc2cc(-c3nc4cc(C(=O)N5C[C@H]6CC[C@@H]5[C@@H]6N)cc(OC)c4n3CC3CN(c4ncncc4C#N)C3)n(CC3CC3)c2n1` [Example 24, 4-[3-({5-[(1R,4R,7R)-7-amino-2-azabicyclo[2.2.1]heptane-2-carbonyl]-2-[1-(cyclopropylmethyl)-6-methoxy-1H-pyrrolo[2,3-b]pyridin-2-yl]-7-methoxy-1H-1,3-benzodiazol-1-yl}methyl)azetidin-1-yl]pyrimidine-5-carbonitrile]: the IC50 is 0.068 µM. Consider `Cn1cc(Cn2c(-c3cc4cccnc4n3CC3CC3)nc3cc(C(=O)N4CC5CCC4[C@@H]5N)cc(F)c32)cn1` (stereo partly drawn) [Example 491, (7R)-2-{2-[1-(cyclopropylmethyl)-1H-pyrrolo[2,3-b]pyridin-2-yl]-7-fluoro-1-[(1-methyl-1H-pyrazol-4-yl)methyl]-1H-1,3-benzodiazole-5-carbonyl}-2-azabicyclo[2.2.1]heptan-7-amine], for which the concentration for half-maximal inhibition (IC50) was 0.057 µM.

Regarding `COc1cc(C(=O)N2C[C@H]3CC[C@@H]2[C@@H]3N)cc2nc(-c3cc4ccccc4n3CC3CC3)n(C[C@H]3CCN(c4cncc(C#N)n4)C3)c12` [Example 196, 6-[(3S)-3-({5-[(1R,4R,7R)-7-amino-2-azabicyclo[2.2.1]heptane-2-carbonyl]-2-[1-(cyclopropylmethyl)-1H-indol-2-yl]-7-methoxy-1H-1,3-benzodiazol-1-yl}methyl)pyrrolidin-1-yl]pyrazine-2-carbonitrile], the half-maximal inhibitory concentration (IC50) was 0.016 µM. The value for `COc1cc(C(=O)N2C[C@H]3CC[C@@H]2[C@@H]3N)cc2nc(-c3cc4cccnc4n3CC3CC3)n(CC3CN(c4cnccn4)C3)c12` [Example 74, (1R,4R,7R)-2-{2-[1-(cyclopropylmethyl)-1H-pyrrolo[2,3-b]pyridin-2-yl]-7-methoxy-1-{[1-(pyrazin-2-yl)azetidin-3-yl]methyl}-1H-1,3-benzodiazole-5-carbonyl}-2-azabicyclo[2.2.1]heptan-7-amine] was 0.21 µM; that for `COc1cc(C(=O)N2C[C@H]3CC[C@@H]2[C@@H]3N)cc2nc(-c3cc4ccc(Cl)cc4n3CC3CC3)n(CC3CN(c4cncc(C)c4)C3)c12` [Example 23, (1R,4R,7R)-2-{2-[6-chloro-1-(cyclopropylmethyl)-1H-indol-2-yl]-7-methoxy-1-{[1-(5-methylpyridin-3-yl)azetidin-3-yl]methyl}-1H-1,3-benzodiazole-5-carbonyl}-2-azabicyclo[2.2.1]heptan-7-amine] was 0.062 µM; that for `COc1cc(C(=O)N2C[C@H]3CC[C@@H]2[C@@H]3N)cc2nc(-c3cc4cccnc4n3CC3CC3)n(CC3CN(C(C)=O)C3)c12` [Example 187, 1-[3-({5-[(1R,4R,7R)-7-amino-2-azabicyclo[2.2.1]heptane-2-carbonyl]-2-[1-(cyclopropylmethyl)-1H-pyrrolo[2,3-b]pyridin-2-yl]-7-methoxy-1H-1,3-benzodiazol-1-yl}methyl)azetidin-1-yl]ethan-1-one] was 0.358 µM. The value for `N[C@@H]1[C@@H]2CC[C@H]1N(C(=O)c1cc(Cl)c3c(c1)nc(-c1cc4cccnc4n1CC1CC1)n3CC1CN(C(=O)c3ccncc3)C1)C2` [Example 131, (1R,4R,7R)-2-{7-chloro-2-[1-(cyclopropylmethyl)-1H-pyrrolo[2,3-b]pyridin-2-yl]-1-{[1-(pyridine-4-carbonyl)azetidin-3-yl]methyl}-1H-1,3-benzodiazole-5-carbonyl}-2-azabicyclo[2.2.1]heptan-7-amine] was 0.138 µM; that for `COc1cc(C(=O)N2CC3CCC2[C@@H]3N)cc2nc(-c3cc4cccnc4n3CC3CC3)n(CC3CN(C(=O)c4c(F)cccc4F)C3)c12` (stereo partly drawn) [Example 431, (7R)-2-{2-[1-(cyclopropylmethyl)-1H-pyrrolo[2,3-b]pyridin-2-yl]-1-{[1-(2,6-difluorobenzoyl)azetidin-3-yl]methyl}-7-methoxy-1H-1,3-benzodiazole-5-carbonyl}-2-azabicyclo[2.2.1]heptan-7-amine] was 0.03 µM; that for `COc1cc(C(=O)N2C[C@H]3CC[C@@H]2[C@@H]3N)cc2nc(-c3cc4cccnc4n3CC3CC3)n(C3CN(c4ccnc(C5CC5)n4)C3)c12` [Example 70, (1R,4R,7R)-2-{2-[1-(cyclopropylmethyl)-1H-pyrrolo[2,3-b]pyridin-2-yl]-1-[1-(2-cyclopropylpyrimidin-4-yl)azetidin-3-yl]-7-methoxy-1H-1,3-benzodiazole-5-carbonyl}-2-azabicyclo[2.2.1]heptan-7-amine] was 0.087 µM. On to `COc1cc(C(=O)N2C[C@H]3CC[C@@H]2[C@@H]3N)cc2nc(-c3cc4ccc(Cl)cc4n3CC3CC3)n(CC3CN(c4ccnc(C(N)=O)n4)C3)c12` [Example 8, 4-[3-({5-[(1R,4R,7R)-7-amino-2-azabicyclo[2.2.1]heptane-2-carbonyl]-2-[6-chloro-1-(cyclopropylmethyl)-1H-indol-2-yl]-7-methoxy-1H-1,3-benzodiazol-1-yl}methyl)azetidin-1-yl]pyrimidine-2-carboxamide], for which the IC50 is 0.018 µM. Consider `COc1cc(C(=O)N2CC3CCC2[C@@H]3N)cc2nc(-c3cc4cccnc4n3CC3CC3)n(CC3CN(C(=O)c4ccc(C#N)cc4F)C3)c12` (stereo partly drawn) [Example 454, 4-[3-({5-[(7R)-7-amino-2-azabicyclo[2.2.1]heptane-2-carbonyl]-2-(1-(cyclopropylmethyl)-1H-pyrrolo[2,3-b]pyridin-2-yl]-7-methoxy-1H-1,3-benzodiazol-1-yl}methyl)azetidine-1-carbonyl]-3-fluorobenzointrile], for which the IC50 came to 0.053 µM. `COc1cc(C(=O)N2CC3CCC2[C@@H]3N)cc2nc(-c3cc4ccccc4n3CC3CC3)n(Cc3cnn(-c4cccnc4C#N)c3)c12` (stereo partly drawn) [Example 385, 3-[4-({5-[(7R)-7-amino-2-azabicyclo[2.2.1]heptane-2-carbonyl]-2-[1-(cyclopropylmethyl)-1H-indol-2-yl]-7-methoxy-1H-1,3-benzodiazol-1-yl}methyl)-1H-pyrazol-1-yl]pyridine-2-carbonitrile]: the 50% inhibitory concentration (IC50) stood at 0.042 µM.

Turning to `COC(=O)c1cc(C(=O)N2CC(Cn3c(-c4cc5cccnc5n4CC4CC4)nc4cc(C(=O)N5C[C@H]6CC[C@@H]5[C@@H]6N)cc(OC)c43)C2)ccn1` [Example 129, methyl 4-[3-({5-[(1R,4R,7R)-7-amino-2-azabicyclo[2.2.1]heptane-2-carbonyl]-2-[1-(cyclopropylmethyl)-1H-pyrrolo[2,3-b]pyridin-2-yl]-7-methoxy-1H-1,3-benzodiazol-1-yl}methyl)azetidine-1-carbonyl]pyridine-2-carboxylate], the concentration for half-maximal inhibition (IC50) was 0.116 µM. For `COc1cc(C(=O)N2C[C@H]3CC[C@@H]2[C@@H]3N)cc2nc(-c3cc4cccnc4n3CC3CC3)n(CC3CN(c4cncs4)C3)c12` [Example 84, (1R,4R,7R)-2-{2-[1-(cyclopropylmethyl)-1H-pyrrolo[2,3-b]pyridin-2-yl]-7-methoxy-1-{[1-(1,3-thiazol-5-yl)azetidin-3-yl]methyl}-1H-1,3-benzodiazole-5-carbonyl}-2-azabicyclo[2.2.1]heptan-7-amine], the concentration for half-maximal inhibition (IC50) was determined as 0.511 µM.

For orientation: IC50 means the midpoint of a concentration-inhibition curve.
